Assay results published in PubChem BioAssay AID493086 (The Scripps Research Institute Molecular Screening Center, 2011).
The source made the active and inactive calls.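 How the source made its calls: active means IC50 at or below 10 µM; inactive means IC50 above 10 µM.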

Target: Induced myeloid leukemia cell differentiation protein Mcl-1 (Homo sapiens) (UniProt Q07820)
Assay: blockers of MCL1–BIM BH3 interaction – biochemical, fluorescence polarization, assay provider data, powder samples, late-stage follow-up (AID 493086)
Details: GST-MCL1 / FITC-BIM-BH3 fluorescence polarization

Induced myeloid leukemia cell differentiation protein Mcl-1 (Homo sapiens), sequence (Q07820 whole entry, looked up): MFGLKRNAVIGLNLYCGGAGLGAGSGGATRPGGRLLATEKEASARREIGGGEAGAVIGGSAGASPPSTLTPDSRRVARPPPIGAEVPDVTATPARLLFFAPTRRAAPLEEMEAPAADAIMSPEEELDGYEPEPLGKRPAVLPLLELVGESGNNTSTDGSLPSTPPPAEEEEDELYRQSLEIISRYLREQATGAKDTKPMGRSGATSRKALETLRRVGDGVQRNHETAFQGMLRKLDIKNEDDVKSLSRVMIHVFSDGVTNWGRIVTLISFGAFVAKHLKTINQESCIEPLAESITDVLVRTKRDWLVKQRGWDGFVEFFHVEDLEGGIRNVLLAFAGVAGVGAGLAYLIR

Compound | IC50
O=C(c1cc(-c2ccco2)nc2ccccc12)N(Cc1nnc(-c2ccc(Cl)cc2)o1)C1CC1 | > 20 µM (inactive)
COc1ccccc1CC(=O)Nc1nnc(Cc2ccc(OC)c(OC)c2)s1 | > 20 µM (inactive)
COc1ccc(Cc2nnc(NC(=O)Cc3sc(=S)[nH]c3C)s2)cc1OC | > 20 µM (inactive)
Cc1ccc(-c2cc(C(=O)NCCCn3ccnc3)c3cc(Br)ccc3n2)o1 | inactive
COc1cccc(NC(=O)CN(C)C(=O)c2cc(-c3ccc(C)o3)nc3ccccc23)c1 | > 20 µM (inactive)
CC1CCCN(C(=O)c2cc(-c3ccco3)nc3ccccc23)C1 (configuration not stated) | > 20 µM (inactive)
O=C(CCn1nnc2ccccc21)Nc1nnc(Cc2ccccc2)s1 | > 20 µM (inactive)
COc1ccc(Cc2nnc(NC(=O)Cc3ccc(-c4ccccc4)cc3)s2)cc1OC | > 20 µM (inactive)
Cc1ccc(-c2cc(C(=O)NCC(c3ccccc3)N(C)C)c3ccccc3n2)o1 (configuration not stated) | > 20 µM (inactive)
COc1ccc(Cc2nnc(NC(=O)Cc3cccs3)s2)cc1OC | > 20 µM (inactive)
CC(=O)c1cccc(NC(=O)c2cc(-c3ccco3)nc3ccccc23)c1 | > 20 µM (inactive)
Cc1ccc2nc(NC(=O)c3cc(-c4ccco4)nc4ccccc34)sc2c1 | > 20 µM (inactive)
